Assay results reported in PubChem BioAssay AID1259411 (Chemical Carcinogenesis Research Information System (CCRIS), 2018).
Activity calls are given as the source filed them. The rule behind the calls is not given here.

Tested on: rodent carcinogenicity bioassays, tumor incidence
Assay: CCRIS carcinogenicity studies
In short: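 NCI-built, expert-reviewed records of carcinogenicity and related test outcomes (mutagenicity, tumor promotion/inhibition) compiled from published and report sources, historical span 1985-2011, not updated.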

**Q.** Which carcinogen call (Species: MOUSE, Strain/Sex: ALBINO/MALE,FEMALE, Route: GAVAGE, Dose: 0, 0.25 ML OF 50 PPM SOLUTION 2/WK FOR 20 WK (STUDY DURATION: 20 WK), Tumor Site: Type of Lesion: KIDNEY: CARCINOMA) does the source give for `C[C@@H]1Cc2c(Cl)cc(C(=O)NC(Cc3ccccc3)C(=O)O)c(O)c2C(=O)O1` (some centres undefined) here?
**A.** Its carcinogen call is “active; positive”.

**Q.** And the carcinogen call (Species: MOUSE, Strain/Sex: CD-1/FEMALE, Route: ORAL, Dose: 0, 0.031, 0.125, 0.5% IN DIET FOR 78 WK (STUDY DURATION: 78 WK), Dose: 0, 0.031, 0.125, 0.5% IN DIET FOR 78 WK (STUDY DURATION: 78 WK))?
**A.** The carcinogen call was “inactive; negative”.

**Q.** What about the carcinogen call (Species: MOUSE, Strain/Sex: CD-1/MALE, Route: ORAL, Dose: 0, 0.031, 0.125, 0.5% IN DIET FOR 78 WK (STUDY DURATION: 78 WK), Dose: 0, 0.031, 0.125, 0.5% IN DIET FOR 78 WK (STUDY DURATION: 78 WK)) of the same molecule?
**A.** Its carcinogen call is “inactive; negative”.

**Q.** What about the carcinogen call (Species: MOUSE, Strain/Sex: DDD/MALE, Route: ORAL, Dose: 0, 25 PPM IN DIET FOR 70 WK (STUDY DURATION: 70 WK), Tumor Site: Type of Lesion: KIDNEY: RENAL CELL TUMOR, LIVER: HEPATOMA) of the same molecule?
**A.** Its carcinogen call is “active; positive”.

**Q.** And the carcinogen call (Species: MOUSE, Strain/Sex: DDY/MALE, Route: ORAL, Dose: 0, 7.05, 17.24, 26.27, 33.16, 35.86, 42.67 MG/MOUSE (TOTAL DOSE) ADMINISTERED AT A DOSE OF 50 PPM IN DIET FOR 0, 5, 10,, Dose: 0, 7.05, 17.24, 26.27, 33.16, 35.86, 42.67 MG/MOUSE (TOTAL DOSE) ADMINISTERED AT A DOSE OF 50 PPM IN DIET FOR 0, 5, 10,, Tumor Site: Type of Lesion: LIVER: HEPATOMA, KIDNEY: RENAL CELL TUMOR)?
**A.** Its carcinogen call is “active; positive”.

**Q.** And the carcinogen call (Species: MOUSE, Strain/Sex: SWISS/MALE,FEMALE, Route: GAVAGE, Dose: 0, 0.25 ML OF A 50 PPM SOLUTION 2/WK FOR 20 WK (STUDY DURATION: 20 WK), Tumor Site: Type of Lesion: KIDNEY: CARCINOMA)?
**A.** The carcinogen call was “active; positive”.

**Q.** And the carcinogen call (Species: RAT, Strain/Sex: DA/FEMALE, Route: GAVAGE, Dose: 0, 0.4 MG/KG BW IN SODIUM BICARBONATE 3/WK FOR DURATION OF STUDY (STUDY DURATION: LIFESPAN))?
**A.** Its carcinogen call is “inactive; negative”.

**Q.** And the carcinogen call (Species: RAT, Strain/Sex: DA/MALE, Route: GAVAGE, Dose: 0, 0.4 MG/KG BW IN SODIUM BICARBONATE 3/WK FOR DURATION OF STUDY (STUDY DURATION: LIFESPAN), Tumor Site: Type of Lesion: KIDNEY: ADENOCARCINOMA, ADENOMA)?
**A.** The carcinogen call was “active; positive”.

**Q.** And the carcinogen call (Species: RAT, Strain/Sex: F344/FEMALE, Route: GAVAGE, Dose: 0, 21, 70, 210 UG/KG IN CORN OIL 5 D/WK FOR 103 WK (STUDY DURATION: 105 WK), Dose: 0, 21, 70, 210 UG/KG IN CORN OIL 5 D/WK FOR 103 WK (STUDY DURATION: 105 WK), Tumor Site: Type of Lesion: KIDNEY TUBULE: ADENOMA, CARCINOMA, MAMMARY GLAND: FIBROADENOMA, ADENOMA OR FIBROADENOMA OR ADENOCARCINOMA)?
**A.** Its carcinogen call is “active; positive”.

**Q.** And the carcinogen call (Species: RAT, Strain/Sex: F344/MALE, Route: GAVAGE, Dose: 0, 21, 70, 210 UG/KG IN CORN OIL 5 D/WK FOR 103 WK (STUDY DURATION: 106 WK), Dose: 0, 21, 70, 210 UG/KG IN CORN OIL 5 D/WK FOR 103 WK (STUDY DURATION: 106 WK), Tumor Site: Type of Lesion: KIDNEY TUBULE: ADENOMA, CARCINOMA)?
**A.** Its carcinogen call is “active; positive”.

**Q.** What about the carcinogen call (Species: RAT, Strain/Sex: LEWIS/FEMALE, Route: GAVAGE, Dose: 0, 0.4 MG/KG BW IN SODIUM BICARBONATE 3/WK FOR DURATION OF STUDY (STUDY DURATION: LIFESPAN), Tumor Site: Type of Lesion: KIDNEY: ADENOCARCINOMA) of the same molecule?
**A.** Its carcinogen call is “active; positive”.

**Q.** What about the carcinogen call (Species: RAT, Strain/Sex: LEWIS/MALE, Route: GAVAGE, Dose: 0, 0.4 MG/KG BW IN SODIUM BICARBONATE 3/WK FOR DURATION OF STUDY (STUDY DURATION: LIFESPAN), Tumor Site: Type of Lesion: KIDNEY: ADENOCARCINOMA) of the same molecule?
**A.** The carcinogen call was “active; positive”.

**Q.** For `NC[N+](=O)[O-]`, which carcinogen call (Species: RAT, Strain/Sex: BDVI/FEMALE, Route: GAVAGE, Dose: 0, 38, 76 MG/KG 1/WK FOR DURATION OF STUDY (STUDY DURATION: LIFETIME), Dose: 0, 38, 76 MG/KG 1/WK FOR DURATION OF STUDY (STUDY DURATION: LIFETIME), Tumor Site: Type of Lesion: SPINAL CORD: NEURINOMA, SPINAL NERVES: NEURINOMA) is on record?
**A.** Its carcinogen call is “active; positive”.

**Q.** And the carcinogen call (Species: RAT, Strain/Sex: BDVI/MALE, Route: GAVAGE, Dose: 0, 38, 76 MG/KG 1/WK FOR DURATION OF STUDY (STUDY DURATION: LIFETIME), Dose: 0, 38, 76 MG/KG 1/WK FOR DURATION OF STUDY (STUDY DURATION: LIFETIME), Tumor Site: Type of Lesion: SPINAL CORD: NEURINOMA, SPINAL NERVES: NEURINOMA)?
**A.** Its carcinogen call is “active; positive”.

**Q.** `Clc1c(Cl)c(Cl)c(Cl)c(Cl)c1Cl` was tested. Which carcinogen call (Species: HAMSTER, Route: ORAL, Tumor Site: Type of Lesion: THYROID GLAND, LIVER) did it give?
**A.** The carcinogen call was “active; positive”.

**Q.** And the carcinogen call (Species: MOUSE, Route: ORAL, Tumor Site: Type of Lesion: LIVER)?
**A.** Its carcinogen call is “active; positive”.

**Q.** What about the carcinogen call (Species: RAT, Strain/Sex: F344/FEMALE, Route: ORAL, Dose: 0, 0.02% IN DIET FOR 30 WK (STUDY DURATION: 35 WK)) of the same molecule?
**A.** Its carcinogen call is “inactive; negative”.

**Q.** What about the carcinogen call (Species: RAT, Strain/Sex: F344/FEMALE, Route: ORAL, Dose: 0, 0.02% OF DIET FOR 90 WK (STUDY DURATION: 90 WK), Tumor Site: Type of Lesion: LIVER: HEPATOCELLULAR CARCINOMA OR NEOPLASTIC NODULE) of the same molecule?
**A.** Its carcinogen call is “active; positive”.

**Q.** What about the carcinogen call (Species: RAT, Strain/Sex: F344/MALE, Route: ORAL, Dose: 0, 0.02% IN DIET FOR 30 WK (STUDY DURATION: 35 WK)) of the same molecule?
**A.** Its carcinogen call is “inactive; negative”.

**Q.** And the carcinogen call (Species: RAT, Strain/Sex: F344/MALE, Route: ORAL, Dose: 0, 0.02% OF DIET FOR 90 WK (STUDY DURATION: 90 WK))?
**A.** Its carcinogen call is “inactive; negative”.

**Q.** `Cc1ccc(Cl)cc1N` was tested. Which carcinogen call (Species: MOUSE, Strain/Sex: B6C3F1/FEMALE, Route: ORAL, Dose: 0, 2000, 4000 PPM IN DIET, Dose: 0, 2000, 4000 PPM IN DIET, Tumor Site: Type of Lesion: BLOOD VESSELS: HEMANGIOSARCOMA, LIVER: HEPATOCELLULAR ADENOMA OR CARCINOMA) did it give?
**A.** The carcinogen call was “active; positive”.

**Q.** And the carcinogen call (Species: MOUSE, Strain/Sex: B6C3F1/MALE, Route: ORAL, Dose: 0, 2000, 4000 PPM IN DIET, Dose: 0, 2000, 4000 PPM IN DIET, Tumor Site: Type of Lesion: BLOOD VESSELS: HEMANGIOSARCOMA, LIVER: HEPATOCELLULAR ADENOMA OR CARCINOMA)?
**A.** The carcinogen call was “active; positive”.

**Q.** And the carcinogen call (Species: RAT, Strain/Sex: F344/FEMALE, Route: ORAL, Dose: 0, 2500, 5000 PPM IN DIET, Dose: 0, 2500, 5000 PPM IN DIET)?
**A.** Its carcinogen call is “inactive; negative”.

**Q.** And the carcinogen call (Species: RAT, Strain/Sex: F344/MALE, Route: ORAL, Dose: 0, 2500, 5000 PPM IN DIET, Dose: 0, 2500, 5000 PPM IN DIET)?
**A.** Its carcinogen call is “inactive; negative”.

**Q.** For `CCC1(c2ccccc2)C(=O)NCNC1=O`, which carcinogen call (Species: MOUSE, Strain/Sex: B6C3F1/FEMALE, Route: ORAL, Dose: 0, 300, 600, 1300 PPM IN DIET FOR 104 WK (STUDY DURATION: 104 WK), Dose: 0, 300, 600, 1300 PPM IN DIET FOR 104 WK (STUDY DURATION: 104 WK), Tumor Site: Type of Lesion: LIVER: HEPATOCELLULAR ADENOMA, HEPATOCELLULAR CARCINOMA, OR HEPATOBLASTOMA) is on record?
**A.** Its carcinogen call is “active; positive”.

**Q.** What about the carcinogen call (Species: MOUSE, Strain/Sex: B6C3F1/MALE, Route: ORAL, Dose: 0, 300, 600, 1300 PPM IN DIET FOR 104 WK (STUDY DURATION: 104 WK), Dose: 0, 300, 600, 1300 PPM IN DIET FOR 104 WK (STUDY DURATION: 104 WK), Tumor Site: Type of Lesion: LIVER: HEPATOCELLULAR ADENOMA, HEPATOCELLULAR CARCINOMA, OR HEPATOBLASTOMA, THYROID GLAND: FOLLICULAR CELL ADENOMA) of the same molecule?
**A.** Its carcinogen call is “active; positive”.

**Q.** And the carcinogen call (Species: RAT, Strain/Sex: F344/FEMALE, Route: ORAL, Dose: 0, 600, 1300, 2500 PPM IN DIET FOR 104 WK (STUDY DURATION: 104 WK), Dose: 0, 600, 1300, 2500 PPM IN DIET FOR 104 WK (STUDY DURATION: 104 WK))?
**A.** Its carcinogen call is “inactive; negative”.

**Q.** And the carcinogen call (Species: RAT, Strain/Sex: F344/MALE, Route: ORAL, Dose: 0, 600, 1300, 2500 PPM IN DIET FOR 104 WK (STUDY DURATION: 104 WK), Dose: 0, 600, 1300, 2500 PPM IN DIET FOR 104 WK (STUDY DURATION: 104 WK), Tumor Site: Type of Lesion: THYROID GLAND: FOLLICULAR CELL ADENOMA, FOLLICULAR CELL ADENOMA OR CARCINOMA, KIDNEY: RENAL TUBULE ADENOMA OR CARCINOMA)?
**A.** The carcinogen call was “equivocal”.

**Q.** With `CCCCCN(N=O)C(=O)OCC` as the molecule, how does the carcinogen call (Species: RAT, Strain/Sex: DONRYU/FEMALE, Route: ORAL, Dose: 0, 100, 200, 400 PPM IN DRINKING WATER FOR 60 WK, Dose: 0, 100, 200, 400 PPM IN DRINKING WATER FOR 60 WK, Tumor Site: Type of Lesion: ORAL CAVITY: PAPILLOMA, CARCINOMA, ESOPHAGUS: PAPILLOMA, CARCINOMA, FORESTOMACH: PAPILLOMA, CARCINOMA, Tumor Site: Type of Lesion: ORAL CAVITY: PAPILLOMA, CARCINOMA, ESOPHAGUS: PAPILLOMA, CARCINOMA, FORESTOMACH: PAPILLOMA, CARCINOMA) read?
**A.** The carcinogen call was “active; positive”.
